Our source for the relative binding affinity (RBA) values is ChEMBL document CHEMBL1124525, “Hexestrol-linked cytotoxic agents: synthesis and binding affinity for estrogen receptors” (J Med Chem, 1989).

Assay [1] concerns the target T1, Estrogen receptor (Rattus norvegicus) (UniProt P06211+Q62986). The experiment in a line: Relative binding affinity for estrogen receptor. Type of assay: protein assay.
The target of assay [2] is T1, Estrogen receptor (Rattus norvegicus). The experiment in a line: Binding affinity to estrogen receptor. Type of assay: protein assay.

As to `CC[C@@](C)(c1ccc(O)cc1)[C@H](CCCC(=O)O)c1ccc(O)cc1`, the relative binding affinity (RBA) in assay [1] worked out at 0.1.

For the compound `CC[C@@](C)(c1ccc(O)cc1)[C@H](CCCCSCCO)c1ccc(O)cc1` (relative stereo), the relative binding affinity (RBA) in assay [2] turned out to be 0.4.

`CC[C@@](C)(c1ccc(O)cc1)[C@H](CCCC(=O)NC)c1ccc(O)cc1` registered a relative binding affinity (RBA) in assay [2] of 0.2.

`CC[C@@](C)(c1ccc(O)cc1)[C@H](CCCC(=O)OC)c1ccc(O)cc1`: the relative binding affinity (RBA) in assay [2] amounted to 0.2.

Turning to `CC[C@@](C)(c1ccc(O)cc1)[C@H](CCCCOCCOCCOCCO)c1ccc(O)cc1`, the relative binding affinity (RBA) in assay [2] came out at 1.

`CC[C@@](C)(c1ccc(O)cc1)[C@H](CCCCN)c1ccc(O)cc1` (relative stereo): the relative binding affinity (RBA) in assay [2] worked out at 2.

In assay [2], `CC[C@@](C)(c1ccc(O)cc1)[C@H](CCCC(=O)NCCO)c1ccc(O)cc1` showed a relative binding affinity (RBA) of 0.1.

Consider `CCCC[C@H](c1ccc(O)cc1)[C@@](C)(CC)c1ccc(O)cc1` (relative stereo), for which the relative binding affinity (RBA) in assay [2] was 1.

Consider `CC[C@@](C)(c1ccc(O)cc1)[C@H](CCCCBr)c1ccc(O)cc1` (relative stereo), for which the relative binding affinity (RBA) in assay [2] is 1.

With `CC[C@@](C)(c1ccc(O)cc1)[C@H](CCCCOCCOCCOCCCl)c1ccc(O)cc1` (relative stereo), in assay [2], the relative binding affinity (RBA) stood at 0.5.

The compound `CC[C@@](C)(c1ccc(O)cc1)[C@H](CCCCN1CCCOP1(=O)N(CCCl)CCCl)c1ccc(O)cc1` (relative stereo) registered a relative binding affinity (RBA) in assay [2] of 1.

`CC[C@@](C)(c1ccc(O)cc1)[C@H](CCCCC=O)c1ccc(O)cc1` yielded a relative binding affinity (RBA) in assay [2] of 1.

In assay [2], `CC[C@@](C)(c1ccc(O)cc1)[C@H](CCCCOCCCl)c1ccc(O)cc1` (relative stereo) gave a relative binding affinity (RBA) of 0.3.

For `C=CCCC[C@H](c1ccc(O)cc1)[C@@](C)(CC)c1ccc(O)cc1` (relative stereo), the relative binding affinity (RBA) in assay [2] is 1.

Compound `CC[C@@](C)(c1ccc(O)cc1)[C@H](CCCCOS(C)(=O)=O)c1ccc(O)cc1` gave a relative binding affinity (RBA) in assay [2] of 0.3.

In assay [2], `CC[C@@](C)(c1ccc(O)cc1)[C@H](CCCCN(CCO)CCO)c1ccc(O)cc1` (relative stereo) registered a relative binding affinity (RBA) of 0.9.

On to `CC[C@@](C)(c1ccc(O)cc1)[C@H](CCCCOC(C)=O)c1ccc(O)cc1`, for which, in assay [2], the relative binding affinity (RBA) worked out at 1.

As to `CC[C@@](C)(c1ccc(O)cc1)[C@H](CCCC=O)c1ccc(O)cc1`, the relative binding affinity (RBA) in assay [2] was determined as 1.

On to `CC[C@@](C)(c1ccc(O)cc1)[C@H](CCCCI)c1ccc(O)cc1` (relative stereo), for which, in assay [2], the relative binding affinity (RBA) was found to be 0.2.

`CC[C@@](C)(c1ccc(O)cc1)[C@H](CCCC(=O)N(CCO)CCO)c1ccc(O)cc1` registered a relative binding affinity (RBA) in assay [2] of 0.2.

In turn, `CC[C@@](C)(c1ccc(O)cc1)[C@H](CCCCO)c1ccc(O)cc1` (relative stereo) gave a relative binding affinity (RBA) in assay [2] of 1.5.

In assay [2], `CC[C@](C)(c1ccc(O)cc1)[C@H](CCCCNCCCl)c1ccc(O)cc1` (relative stereo) had a relative binding affinity (RBA) of 1.

In the case of `CC[C@@](C)(c1ccc(O)cc1)[C@H](CCCCCl)c1ccc(O)cc1` (relative stereo), the relative binding affinity (RBA) in assay [2] came to 1.5.

`CC[C@@](C)(c1cc(Br)c(O)c(Br)c1)[C@H](CCCCO)c1ccc(O)c(Br)c1` came in with a relative binding affinity (RBA) in assay [2] of 0.1.

In assay [2], `CC[C@@](C)(c1ccc(O)cc1)[C@H](CCCCOCCO)c1ccc(O)cc1` yielded a relative binding affinity (RBA) of 1.

Regarding `CC[C@](C)(c1ccc(O)cc1)[C@H](CCCCN(CCCl)CCCl)c1ccc(O)cc1` (relative stereo), the relative binding affinity (RBA) in assay [2] came to 2.5.

As for `CC[C@@](C)(c1ccc(O)cc1)[C@H](CCCCOCCOCCCl)c1ccc(O)cc1` (relative stereo), the relative binding affinity (RBA) in assay [2] worked out at 1.

Take `CCSCCCCC(c1ccc(O)cc1)C(C)(CC)c1ccc(O)cc1` (stereo unspecified): in assay [2], the relative binding affinity (RBA) was 0.2.

For the compound `CC[C@@](C)(c1ccc(O)cc1)[C@H](CCCC(N)=O)c1ccc(O)cc1`, in assay [2], the relative binding affinity (RBA) came out at 0.9.

`CC[C@@](C)(c1ccc(O)cc1)[C@H](CCCCNC(=O)N(CCCl)N=O)c1ccc(O)cc1` registered a relative binding affinity (RBA) in assay [2] of 1.

In the case of `CC[C@@](C)(c1ccc(O)cc1)[C@H](CCCCOCCOCCO)c1ccc(O)cc1`, the relative binding affinity (RBA) in assay [2] is 1.
